According to patent US8575145B2, “Triazolopyridine compounds as PIM kinase inhibitors” (Array BioPharma Inc., priority 2008, dated 2013):
Counter-ions that a name gives are not always drawn.

Columns and labels:
[1] = tested on: CD4+ T cells; assay: T Cell in vitro Functional Assay (A): proliferation; type: cell-based; settings: Mus musculus, anti-CD3/anti-CD28, 40 hours
Experimental: (§1) The in vitro assays to assess the effects of the compounds of Examples 16, 18 and 26 on T cells were conducted as described in assays A, B, C and D below. CD4+ T cells were isolated from red blood cell-depleted splenocytes of C57B1/6J mice (Jackson Laboratories, catalog #000664) using CD4+ T cell isolation kit (Miltenyi, catalog #130-090-860).
In assay (A), purified CD4+ T cells were plated in 96 well plates at 90000 cells/well in 90 μL. A dilution series of the compounds of Examples 16, 18 and 26 were prepared at 100× the final concentration in DMSO and then diluted 10-fold into complete media (10× stocks). 10 μL of 10×compound stocks were added to appropriate wells of 96 well plates containing cells and incubated for 1 hour at 37° C., 5% CO2. The cell/compound mixtures were then transferred to a 96 well plate coated with anti-CD3 mAb (1 μg/mL; BD Pharmingen, catalog #553057) and soluble anti-CD28 mAb (1 μg/mL; BD Pharmingen, catalog #553294) was added. Plates were cultured at 37° C., 5% CO2 for 40 hours. 20 μL of the culture were removed for determination of proliferation using the CellTitre-Glo™ luminescent assay (Promega, Catalog #G7571) according to the manufacturer's protocol. The plate was quantified on a Packard TopCount instrument using luminescence protocol and data was analyzed using Prism software.
(§2) For each of assays A, B, C and D, the values for each well were converted to a percent of vehicle-treated (DMSO) control (POC). These POC values were plotted as a function of compound concentration and an IC50 calculated using a 4-parameter curve-fit analysis program.

[2] = biological target: recombinant rat PIM-3 (Rattus norvegicus (Rat), UniProt O70444); assay: PIM-3 Enzyme Assay; settings: read-out: PIM-3 IC50; 30 μM ATP, 0.5 nM PIM-3
Experimental: (§6) The amount of radiolabeled product is then measured by liquid scintillation counting. The final buffer conditions were as follows: 20 mM K^+MOPS, pH 7.4, 10 mM MgCl2, 0.005% Tween-20, 1 mM DTT. […] Incubations were carried out for 60 min at 22° C. and quenched with 75 μL of 200 mM H3PO4, filtered through a Whatman P81 plate and washed (1×200 μL and 5×100 μL ) with 200 mM H3PO4. Liquid scintillation cocktail (50 μL ) was then added per well, and the plate was counted for 30 s/well using a TopCount NXT.
(§7) One-μL aliquots of these were then transferred to the assay mixtures above to give a final concentration of DMSO of 2%. […] For each plate, percent of control (POC) values were calculated for each well. IC50's were estimated from the POC's using a standard 4-parameter logistic model. The IC50 is defined as the concentration of inhibitor at which the POC equals 50 for the fitted curve.

[3] = tested on: PC3 (Androgen independent prostate cancer); assay: Cellular Proliferation Assay, cell line A; type: cell-based; settings: PC3, 72 hours, CelltiterBlue; read-out: Cell Line A antiproliferative IC50
Experimental: (§3) The assay for determination of the antiproliferative activity of multiple Pim inhibitors in the JAK2-driven cell lines was conducted as follows. Cells were plated out to 96-well plates at an initial density of 10,000 cells/well in 95 pt. Compounds were prepared at […] in DMSO by conducting 3-fold serial dilutions to give a 10-point dosing curve having a high dose of 1000 μM. Aliquots (5 μt) of these dilutions were then transferred to the appropriate wells of the 96-well plates containing cells to yield a final DMSO concentration of 0.5%. The cells were then incubated with compound for 72 hours at 37° C., 5% CO2. CelltiterBlue reagent (Promega, Catalog #: G8080) was then added (20 μL/well) and incubated at 37° C., 5% CO2 for 1-8 hours depending on the cell line being analyzed. The plate was then quantified employing a fluorescence plate reader (Model: Gemini [Molecular Devices]; Settings: 560 nm (Ex)/590 nm (Em) 570 nm (cut-off) [CellTiter Blue Assay].
(§4) The values for each well were then converted to a percent of untreated control (POC). These POC values were then plotted as a function of compound concentration. A 4-parameter curve-fit analysis was performed for each compound dilution and an IC50 value was calculated from this curve.
(§5) Cell lines • A: PC3 (Androgen independent prostate cancer) • B: K562 (Ph+chronic myelogenous leukemia) • C: MV4-11 (Acute myelogenous leukemia) • D: BxPC3 (Pancreatic Cancer) • E: HepG2 (Hepatocellular Carcinoma) • F: BaF3 (Mouse pro-B-cell line) • G: BaF3 TEL-JAK2 (Mouse pro-B-cell transformed with TEL-JAK2 fusion) • H: BaF2 BCR-Ab1 (Mouse pro-B-cell transformed with BCR-Ab1 fusion)

[4] = tested on: CD4+ T cells; assay: T Cell in vitro Functional Assay (D): IL-22 production; type: cell-based; settings: Mus musculus; CD4+ T cells cultured with IL-6/TGFβ, IL-23 stimulation 18 hours, ELISA
Experimental: as §1
In assay (D), 1,000,000 cells/mL of purified CD4+ T cells were mixed with 1 μg/mL anti-CD28, 50 ng/mL IL-6 (R&D Systems cat #406-ML-025/CF), 1 ng/mL TGFβ (R&D Systems cat #303-B2-002), 2 μg/mL anti-IL-4 (R&D Systems cat #AB-404-NA), 2 μg/mL anti-IFNγ (R&D Systems cat #AB-485-NA) and placed into plates coated with 1 μg/mL anti-CD3. After 4 days, cells were harvested, washed and 100,000 cells were plated into 96 well plate. A dilution series of compounds were prepared at 200× the final concentration in DMSO, then 10× stocks were prepared by dilution in cell culture media. 10 μL of 10× stocks were added to the cells in the 96 well plate. After 2 hours, 50 ng IL-23 (R&D Systems catalog #1887-ML-010/CF) was added to each well and 18 hours later supernatants were removed and tested for IL-22 levels by ELISA (R&D Systems catalog #M2200). ELISA plates were quantified relative to a standard curve using Molecular Devices Versamax Reader at […] and Softmax Pro software.
as §2

[5] = biological target: GST-tagged recombinant full-length human PIM-2 (Homo sapiens (Human), UniProt Q9P1W9); assay: PIM-2 Enzyme Assay; settings: read-out: PIM-2 IC50; 4 μM ATP, […] PIM-2
Chain of GST-tagged recombinant full-length human PIM-2 (Q9P1W9 whole entry): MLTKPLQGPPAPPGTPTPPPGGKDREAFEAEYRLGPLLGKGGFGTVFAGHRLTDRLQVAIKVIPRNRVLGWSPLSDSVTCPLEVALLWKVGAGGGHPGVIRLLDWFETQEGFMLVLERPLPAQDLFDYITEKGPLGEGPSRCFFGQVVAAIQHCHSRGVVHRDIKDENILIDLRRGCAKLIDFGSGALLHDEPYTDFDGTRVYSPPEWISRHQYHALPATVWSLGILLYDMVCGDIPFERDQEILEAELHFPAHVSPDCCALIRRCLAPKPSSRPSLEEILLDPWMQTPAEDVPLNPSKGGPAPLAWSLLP
Experimental: as §6, §7

[6] = tested on: CD4+ T cells; assay: T Cell in vitro Functional Assay (C): IL-4 production; type: cell-based; settings: Mus musculus; CD4+ T cells cultured with IL-4/anti-IFNγ, anti-CD3 restimulation 18 hours, ELISA
Experimental: as §1
In assay (C), 1000000 cells/mL of purified CD4+ T cells were mixed with 1 μg/mL anti-CD28, 10 ng/mL IL-4 (R&D Systems cat #404-ML-010/CF) and 2 μg/mL anti-IFNγ (R&D Systems cat #AB-485-NA) and placed into plates coated with 1 μg/mL anti-CD3. After 5 days, cells were harvested, washed and incubated overnight at 37° 5% CO2. The following day, 50,000 cells were plated into each well of a 96 well plate. A dilution series of compounds were prepared at 200× the final concentration in DMSO, then 10×stocks were prepared by dilution in cell culture media. 10 μL of 10× stocks were added to the cells in the 96 well plate and incubated for 2 hours at 37° C., 5% CO2. Cell/compound mixtures were then transferred to well coated with 0.1 μg anti-CD3 and incubated at 37° C., 5% CO2. Culture supernatants were removed 18 hours later and tested for IL-4 levels by ELISA (R&D Systems catalog #DY404). ELISA plates were quantified relative to a standard curve using Molecular Devices Versamax Reader at […] and Softmax Pro software.
as §2

[7] = tested on: BaF2 BCR-Ab1 (Mouse pro-B-cell transformed with BCR-Ab1 fusion); assay: Cellular Proliferation Assay, cell line H; type: cell-based; settings: BaF2 BCR-Ab1, 72 hours, CelltiterBlue, read-out: Cell Line H antiproliferative IC50
Experimental: as §3, §4, §5

| Structure (SMILES) | IC50 [1] [nM] | IC50 [2] [nM] | IC50 [3] [nM] | IC50 [4] [nM] | IC50 [5] [nM] | IC50 [6] [nM] | IC50 [7] [nM] |
| --- | --- | --- | --- | --- | --- | --- | --- |
| c1cc(OCC2CCCNC2)c2nc(-c3nnc4ccccn34)ccc2c1 (stereo not drawn) [Example 16, 2-([1,2,4]Triazolo[4,3-a]pyridin-3-yl)-8-(piperidin-3-ylmethoxy)quinoline] | ≤ 1000 | 4 | < 5000 | ≤ 1000 | 169 | ≤ 1000 | < 5000 |
| CC(C)(CN)COc1cccc2ccc(-c3nnc4ccccn34)nc12 [Example 18, 3-(2-([1,2,4]Triazolo[4,3-a]pyridin-3-yl)quinolin-8-yloxy)-2,2-dimethylpropan-1-amine] | ≤ 1000 | 2 | < 2000 | ≤ 1000 | 49 | ≤ 1000 | < 2000 |
| F[C@@H]1CNCCC1Oc1cccc2ccc(-c3nnc4ccccn34)nc12 (stereo in doubt) [Example 26, 2-([1,2,4]triazolo[4,3-a]pyridin-3-yl)-8-((cis)-3-fluoropiperidin-4-yloxy)quinoline dihydrochloride] | ≤ 5000 | 9 | < 5000 | ≤ 5000 | 137 | ≤ 5000 | < 2000 |
